In patent publication EP4806900A2, “RAS INHIBITORS” (Revolution Medicines, Inc., priority 2019, dated 2021):

The compounds below were run on NCI-H358 (K-Ras G12C) (assay: CellTiter-Glo cell viability assay, NCI-H358). Details: Homo sapiens, NCI-H358, Table 5; read-out: H358 Cell Viability assay data (K-Ras G12C, IC50).
Format: cell-based, human
Description: Note - The following protocol describes a procedure for monitoring cell viability of K-Ras mutant cancer cell lines in response to a compound of the invention. Other RAS isoforms may be employed, though the number of cells to be seeded will vary based on cell line used.
Test compounds (132.5 nL) were directly dispensed into the assay plates containing cells. […] On day 5, assay plates and their contents were equilibrated to room temperature for approximately 30 minutes. […] Luminescence was measured using the PerkinElmer Enspire. Data were normalized by the following: (Sample signal/Avg. DMSO)*100. The data were fit using a four-parameter logistic fit.

| IC50 [µM] | SMILES |
| --- | --- |
| < 0.01 | CO[C@@H](C)c1ncccc1-c1c2c3cc(ccc3n1CC(F)(F)F)-c1cc(cc(C(F)F)c1)C[C@H](NC(=O)[C@H](C(C)C)N(C)C(=O)[C@H]1CCN(C(=O)C#CC(C)(C)N3CCC3)C1)C(=O)N1CCC[C@H](N1)C(=O)OCC(C)(C)C2 (atropisomer, axis not shown) [Compound A370] |
| < 0.01 | CCn1c(-c2cccnc2[C@H](C)OC)c2c3cc(ccc31)-c1cccc(c1)C[C@H](NC(=O)[C@H](C1CCCC1)N(C)C(=O)[C@@H]1CN(C(=O)C#CC(C)(C)N(C)C)C[C@@H]1C)C(=O)N1CCC[C@H](N1)C(=O)OCC(C)(C)C2 (atropisomer, axis not shown) [Compound A391] |
| < 0.01 | CCn1c(-c2cccnc2[C@H](C)OC)c2c3cc(ccc31)-c1cc(cc(C(F)F)c1)C[C@H](NC(=O)[C@H](C(C)C)N(C)C(=O)[C@H]1CCN(C(=O)C#CC(C)(C)N3CCC3)C1)C(=O)N1CCC[C@H](N1)C(=O)OCC(C)(C)C2 (atropisomer, axis not shown) [Compound A466] |
| 0.1 to 1 | C=CC(=O)N1CC[C@H](C(=O)N(C)[C@H](C(=O)N[C@H]2CC3=CCCN(C3)c3ccc4c(c3)c(c(-c3cccnc3[C@H](C)OC)n4CC)CC(C)(C)COC(=O)[C@@H]3CCCN(N3)C2=O)C(C)C)C1 (atropisomer, axis not shown) [Compound A486] |
| < 0.01 | C=CC(=O)N1CC[C@@H](C(=O)N(C)[C@H](C(=O)N[C@H]2Cc3cccc(c3)-c3ccc4c(c3)c(c(-c3cccnc3[C@H](C)OC)n4CC)CC(C)(C)COC(=O)[C@@H]3CCCN(N3)C2=O)C(C)C)C1 (atropisomer, axis not shown) [Compound A488] |
| < 0.01 | CO[C@@H](C)c1ncccc1-c1c2c3cc(ccc3n1CC(F)(F)F)-c1csc(n1)C[C@H](NC(=O)[C@H](C(C)C)N(C)C(=O)N1C[C@@H]3OCCN(C(=O)/C=C/CF)[C@@H]3C1)C(=O)N1CCC[C@H](N1)C(=O)OCC(C)(C)C2 (atropisomer, axis not shown) [Compound A571] |
| < 0.01 | CO[C@@H](C)c1ncccc1-c1c2c3cc(ccc3n1CC(F)(F)F)-c1csc(n1)C[C@H](NC(=O)[C@H](C(C)C)N(C)C(=O)N1C[C@@H]3OCCN(C(=O)/C=C/C(F)F)[C@@H]3C1)C(=O)N1CCC[C@H](N1)C(=O)OCC(C)(C)C2 (atropisomer, axis not shown) [Compound A572] |
| 0.01 to 0.1 | CO[C@@H](C)c1ncccc1-c1c2c3cc(ccc3n1CC(F)(F)F)-c1csc(n1)C[C@H](NC(=O)[C@H](C(C)C)N(C)C(=O)N1C[C@@H]3OCCN(C(=O)/C=C/CN(C)C)[C@@H]3C1)C(=O)N1CCC[C@H](N1)C(=O)OCC(C)(C)C2 (atropisomer, axis not shown) [Compound A573] |
| < 0.01 | CO[C@@H](C)c1ncccc1-c1c2c3cc(ccc3n1CC(F)(F)F)-c1nc(nn1C)C[C@H](NC(=O)[C@H](C(C)C)N(C)C(=O)C1(F)CCN(C(=O)C#CC(C)(C)N(C)C)CC1)C(=O)N1CCC[C@H](N1)C(=O)OCC(C)(C)C2 (atropisomer, axis not shown) [Compound A577] |
| 0.01 to 0.1 | CCn1c(-c2cccnc2[C@H](C)OC)c2c3cc(ccc31)N1CCO[C@@H](C[C@H](NC(=O)[C@H](C(C)C)N3CC[C@@]4(CCN(C(=O)C#CC(C)(C)N(C)C)C4)C3=O)C(=O)N3CCC[C@H](N3)C(=O)OCC(C)(C)C2)C1 (atropisomer, axis not shown) [Compound A614] |
| < 0.01 | CCn1c(-c2cccnc2[C@H](C)OC)c2c3cc(ccc31)-c1cccc(c1)C[C@H](NC(=O)[C@H](C(C)C)N(C)C(=O)C1(F)CCN(C(=O)C#CC(C)(C)N(C)C)CC1)C(=O)N1CCC[C@H](N1)C(=O)OCC(C)(C)C2 (atropisomer, axis not shown) [Compound A699] |

| SMILES | IC50 [µM] |
| --- | --- |
| C=CC(=O)N1CC(CN2C(=O)O[C@H](C)[C@H]2C(=O)N[C@H]2Cc3cccc(c3)-c3ccc4c(c3)c(c(-c3cccnc3[C@H](C)OC)n4CC)CC(C)(C)COC(=O)[C@@H]3CCCN(N3)C2=O)C1 (atropisomer, axis not shown) [Compound A460] | > 1 |

Same assay, conditions: Homo sapiens, NCI-H358, read-out: H358 Cell Viability assay data (K-Ras G12C, IC50, uM), Table 5

| SMILES | IC50 [µM] |
| --- | --- |
| CCn1c(-c2cccnc2[C@H](C)OC)c2c3cc(ccc31)-c1cccc(c1)C[C@H](NC(=O)[C@H](C(C)C)N(C)C(=O)[C@H]1CCN(C(=O)C#CCN(C)C)C1)C(=O)N1CCC[C@H](N1)C(=O)OCC(C)(C)C2 (atropisomer, axis not shown) [Compound A121] | < 0.01 |
| C=CS(=O)(=O)N1CC[C@H](C(=O)N(C)[C@H](C(=O)N[C@H]2Cc3cccc(c3)-c3ccc4c(c3)c(c(-c3cccnc3[C@H](C)OC)n4CC)CC(C)(C)COC(=O)[C@@H]3CCCN(N3)C2=O)C(C)C)C1 (atropisomer, axis not shown) [Compound A124] | < 0.01 |
| C=CC(=O)N1CC[C@H](C(=O)N(C)[C@H](C(=O)N[C@H]2Cc3cc(O)cc(c3)-c3ccc4c(c3)c(c(-c3cccnc3[C@H](CC)OC)n4CC)CC(C)(C)COC(=O)[C@@H]3CCCN(N3)C2=O)C(C)C)C1 (atropisomer, axis not shown) [Compound A181] | < 0.01 |
| C=CC(=O)Nc1cnc(C(=O)N(C)[C@H](C(=O)N[C@H]2Cc3cccc(c3)-c3ccc4c(c3)c(c(-c3cccnc3[C@H](C)OC)n4CC)CC(C)(C)COC(=O)[C@@H]3CCCN(N3)C2=O)C(C)C)n1C (atropisomer, axis not shown) [Compound A525] | < 0.01 |
| CCn1c(-c2cccnc2[C@H](C)OC)c2c3cc(ccc31)-c1cccc(c1)C[C@H](NC(=O)[C@H](C(C)C)N1CC[C@]3(CCN(C(=O)C#C[C@H]4COCCN4C)C3)C1=O)C(=O)N1CCC[C@H](N1)C(=O)OCC(C)(C)C2 (atropisomer, axis not shown) [Compound A592] | < 0.01 |
| C=CC(=O)N1CCO[C@H]2CCN(C(=O)N(C)[C@H](C(=O)N[C@H]3Cc4nc(cs4)-c4ccc5c(c4)c(c(-c4cccnc4[C@H](C)OC)n5CC)CC(C)(C)COC(=O)[C@@H]4CCCN(N4)C3=O)C(C)C)C[C@@H]21 (atropisomer, axis not shown) [Compound A609] | < 0.01 |
| CCn1c(-c2cccnc2[C@H](C)OC)c2c3cc(ccc31)-c1cccc(c1)C[C@H](NC(=O)[C@H](C(C)C)N(C)C(=O)[C@H]1CCN(C(=O)C#CC(C)(C)N3CCC(F)(F)C3)C1)C(=O)N1CCC[C@H](N1)C(=O)OCC(C)(C)C2 (relative stereo) [Compound A325] | 0.1 to 1 |
| C=CC(=O)N1CC[C@H](C(=O)N(C)[C@H](C(=O)N[C@H]2Cc3cc(O)cc(c3)-c3ccc4c(c3)c(c(-c3cc(CN(C)C)cnc3[C@H](C)OC)n4CC)CC(C)(C)COC(=O)[C@@H]3CCCN(N3)C2=O)C(C)C)C1 (single isomer, unassigned) [Compound A537] | < 0.01 |
| C=CC(=O)N1CC[C@H](C(=O)N(C)[C@H](C(=O)N[C@H]2Cc3cc(O)cc(c3)-c3ccc4c(c3)c(c(-c3cccnc3)n4[C@H](C)C#N)CC(C)(C)COC(=O)[C@@H]3CCCN(N3)C2=O)C(C)C)C1 [A193] | 0.1 to 1 |

Same assay, conditions: Table 5; read-out: H358 Cell Viability assay data (K-Ras G12C, IC50)

| IC50 [µM] | SMILES |
| --- | --- |
| 0.1 to 1 | C=CC(=O)N1CC2(CCN2C(=O)N(C)[C@H](C(=O)N[C@H]2Cc3nc(n(C)n3)-c3ccc4c(c3)c(c(-c3cccnc3[C@H](C)OC)n4CC)CC(C)(C)COC(=O)[C@@H]3CCCN(N3)C2=O)C(C)C)C1 (atropisomer, axis not shown) [Compound A612] |
| < 0.01 | CCn1c(-c2cccnc2[C@H](C)OC)c2c3cc(ccc31)-c1csc(n1)C[C@H](NC(=O)[C@H](C(C)C)N(C)C(=O)N1C[C@H]3CN(C(=O)C#CC(C)(C)N(C)C)CC[C@H]31)C(=O)N1CCC[C@H](N1)C(=O)OCC(C)(C)C2 (atropisomer, axis not shown) [Compound A624] |
| 0.01 to 0.1 | CCn1c(-c2cccnc2[C@H](C)OC)c2c3cc(ccc31)-c1csc(n1)C[C@H](NC(=O)[C@H](C(C)C)N(C)C(=O)N1C[C@@H]3CN(C(=O)C#CC(C)(C)N(C)C)CC[C@@H]31)C(=O)N1CCC[C@H](N1)C(=O)OCC(C)(C)C2 (atropisomer, axis not shown) [Compound A625] |
| 0.01 to 0.1 | CCn1c(-c2cccnc2[C@H](C)OC)c2c3cc(ccc31)-c1csc(n1)C[C@H](NC(=O)[C@H](C(C)C)N(C)C(=O)N1CCCOC13CN(C(=O)C#CC(C)(C)N(C)C)C3)C(=O)N1CCC[C@H](N1)C(=O)OCC(C)(C)C2 (atropisomer, axis not shown) [Compound A666] |
| < 0.01 | C=CC(=O)N1CC2(CCN2C(=O)N(C)[C@H](C(=O)N[C@H]2Cc3cccc(c3)-c3ccc4c(c3)c(c(-c3cccnc3[C@H](C)OC)n4CC)CC(C)(C)COC(=O)[C@@H]3CCCN(N3)C2=O)C(C)C)C1 (atropisomer, axis not shown) [Compound A684] |

Same assay, conditions: read-out: H358 Cell Viability assay data (K-Ras G12C, IC50); Table 5

| SMILES | IC50 [µM] |
| --- | --- |
| C=CC(=O)N1CC[C@H](C(=O)N(C)[C@H](C(=O)N[C@H]2Cc3cccc(c3)-c3ccc4c(c3)c(c(-c3cc(C5CCN(C)CC5)cnc3[C@H](C)OC)n4CC)CC(C)(C)COC(=O)[C@@H]3CCCN(N3)C2=O)C(C)C)C1 (atropisomer, axis not shown) [Compound A515] | < 0.01 |
| C=CC(=O)N1CC[C@H](C(=O)N(C)[C@H](C(=O)N[C@H]2Cc3nc(cs3)-c3ccc4c(c3)c(c(-c3cc(C5=CCN(C)CC5)cnc3[C@H](C)OC)n4CC)CC(C)(C)COC(=O)[C@@H]3CCCN(N3)C2=O)C(C)C)C1 (atropisomer, axis not shown) [Compound A520] | < 0.01 |
